Measurements reported in patent publication US10053453B2, “Compounds and their use as BACE inhibitors” (AstraZeneca AB, priority 2014, dated 2018).
Like-named read-outs stand apart in the source and are kept apart here.

How the values were obtained:
Human BACE1 = target: T1, Human BACE1 (Homo sapiens, UniProt P56817); assay: Diluted TR-FRET assay; assay type: biochemical; conditions: 50 times less enzyme, 6.5 h reaction time at r.t.; read-out: IC50 BACE1 (dil. TR-FRET)
T1 construct: the soluble part of the human β-Secretase1 (AA1-AA460) was cloned using the BACE1(1-460)-(AVT)-Fc-pGEN-IRES-neo mammalian expression vector; AVT linker (C); made in house
T1 sequence (P56817 22-460): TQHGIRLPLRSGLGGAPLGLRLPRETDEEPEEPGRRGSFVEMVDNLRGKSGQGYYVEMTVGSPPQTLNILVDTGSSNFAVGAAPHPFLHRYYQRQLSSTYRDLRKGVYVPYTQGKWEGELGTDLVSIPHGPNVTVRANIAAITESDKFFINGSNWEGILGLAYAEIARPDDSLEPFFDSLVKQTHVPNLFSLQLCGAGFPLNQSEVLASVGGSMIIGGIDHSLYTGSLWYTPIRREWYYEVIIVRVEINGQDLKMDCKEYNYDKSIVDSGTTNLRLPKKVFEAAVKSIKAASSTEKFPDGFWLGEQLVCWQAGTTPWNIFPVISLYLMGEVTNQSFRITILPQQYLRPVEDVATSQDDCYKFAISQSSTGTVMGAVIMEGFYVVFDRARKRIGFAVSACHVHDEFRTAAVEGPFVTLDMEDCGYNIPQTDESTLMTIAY
In short: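 Human BACE1 (residues 1-460) was fused to an IgG1 Fc affinity tag and stably expressed in HEK 293 cells. Using a Multidrop Combi, 7 μL enzyme was added to 0.8 μL compound in dimethylsulphoxide and incubated 10 minutes. Reactions were stopped with 5.5 μL NaOAC Stop solution (pH 9), and TR-FRET fluorescence was read on a Pherastar HTRF module.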

Human BACE2 = target: T2, Human BACE2 (Homo sapiens, UniProt Q9Y5Z0); assay: TR-FRET assay; assay type: biochemical; conditions: substrate 100 nM, pH4.5
T2 construct: the soluble part of the human β-Secretase2 (AA1-AA473) was cloned using BACE2(1-473)-(AVT)-Fc-pDEST12.2 mammalian expression vector; AVT linker (C); made in house
T2 sequence (Q9Y5Z0 21-473): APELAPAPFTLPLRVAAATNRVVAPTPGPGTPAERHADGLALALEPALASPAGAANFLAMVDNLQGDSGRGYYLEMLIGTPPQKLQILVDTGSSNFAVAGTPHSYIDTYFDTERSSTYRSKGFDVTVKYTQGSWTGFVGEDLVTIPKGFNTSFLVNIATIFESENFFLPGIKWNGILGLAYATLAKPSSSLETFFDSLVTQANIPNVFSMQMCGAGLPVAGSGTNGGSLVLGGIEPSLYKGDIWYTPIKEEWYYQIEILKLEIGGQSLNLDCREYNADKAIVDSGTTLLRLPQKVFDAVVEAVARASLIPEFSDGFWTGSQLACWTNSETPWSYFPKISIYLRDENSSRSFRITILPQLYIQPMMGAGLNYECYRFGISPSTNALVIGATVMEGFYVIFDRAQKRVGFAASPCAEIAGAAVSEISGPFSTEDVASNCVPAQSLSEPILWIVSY

SH-SY5Y cells = assay: sAPPβ release assay
[1] = Homo sapiens, SH-SY5Y, read-out: IC50 Cell (sAPPβ release, nM), SH-SY5Y cells, compounds incubated 16-17 h
[2] = read-out: IC50 Cell (sAPPβ release), SH-SY5Y cells, compounds incubated 16-17 h

Row | Compound | IC50 (Human BACE1) | IC50 (Human BACE2; enzyme 2.7 μg/mL) | IC50 (SH-SY5Y cells; [1]) | IC50 (Human BACE2; enzyme […]) | IC50 (SH-SY5Y cells; [2])
1 | [2H]C1([2H])OC(N)=NC12c1cc(-c3ccnc(O)c3)ccc1C[C@@]21CC[C@H](OC)[C@@H](C)C1 (stereo partly drawn) [Compound 111] | 2160 nM | > 5000 nM | 89 nM | – | –
2 | [2H]C1([2H])OC(N)=N[C@]12c1cc(-c3ccncc3)ccc1C[C@@]21CC[C@H](OC)[C@@H](C)C1 [Compound 112, {(1S,1′R,3S,4S)-4-methoxy-3-methyl-6′-(pyridin-4-yl)-3′H,5″H-dispiro[cyclohexane-1,2′-indene-1′,4″-oxazol]-5″,5″-d2-2″-amine}] | 2030 nM | 4820 nM | 14 nM | – | –
3 | [2H]C1([2H])OC(N)=N[C@]12c1cc(-c3cncc(C#N)c3)ccc1C[C@@]21CC[C@H](OC)[C@@H](C)C1 [Compound 113, {(1S,1′R,3S,4S)-4-methoxy-3-methyl-6′-(5-cyanopyridin-3-yl)-3′H,5″H-dispiro[cyclohexane-1,2′-indene-1′,4″-oxazol]-5″,5″-d2-2″-amine}] | 17 nM | 64 nM | 0.2 nM | – | –
4 | [2H]C1([2H])OC(N)=N[C@]12c1cc(-c3ccccn3)ccc1C[C@@]21CC[C@H](OC)[C@@H](C)C1 [Compound 114, {(1S,1′R,3S,4S)-4-methoxy-3-methyl-6′-(pyridin-2-yl)-3′H,5″H-dispiro[cyclohexane-1,2′-indene-1′,4″-oxazol]-5″,5″-d2-2″-amine}] | 770 nM | 1840 nM | 8 nM | – | –
5 | [2H]C1([2H])OC(N)=N[C@]12c1cc(-c3ccnnc3)ccc1C[C@@]21CC[C@H](OC)[C@@H](C)C1 [Compound 115, {(1S,1′R,3S,4S)-4-methoxy-3-methyl-6′-(pyridazin-4-yl)-3′H,5″H-dispiro[cyclohexane-1,2′-indene-1′,4″-oxazol]-5″,5″-d2-2″-amine}] | 346 nM | 2220 nM | 13 nM | – | –
6 | [2H]C1([2H])OC(N)=N[C@]12c1cc(-c3cncnc3C)ccc1C[C@]21CC[C@@H](OC)CC1 [Compound 116, {(1r,1′R,4R)-4-methoxy-6′-(4-methylpyrimidin-5-yl)-3′H,5″H-dispiro[cyclohexane-1,2′-indene-1′,4″-oxazol]-5″,5″-d2-2″-amine}] | 1130 nM | > 5000 nM | 26 nM | – | –
7 | [2H]C1([2H])OC(N)=N[C@]12c1cc(C#N)ccc1C[C@]21CC[C@@H](OC)[C@H](C)C1 [Compound 119, {(1R,1′R,3R,4R)-6′-cyano-4-methoxy-3-methyl-3′H,5″H-dispiro[cyclohexane-1,2′-indene-1′,4″-oxazol]-5″,5″-d2-2″-amine}] | 294 nM | 1090 nM | 13 nM | – | –
8 | [2H]C1([2H])OC(N)=N[C@]12c1cc(C#N)ccc1C[C@@]21CC[C@H](OC)[C@@H](C)C1 [Compound 120, {(1S,1′R,3S,4S)-6′-cyano-4-methoxy-3-methyl-3′H,5″H-dispiro[cyclohexane-1,2′-indene-1′,4″-oxazol]-5″,5″-d2-2″-amine}] | 191 nM | 1630 nM | 7 nM | – | –
9 | (1r,3R,4r,5S)-4-methoxy-3,5-dimethyl-6′-(5-(trifluoromethyl)pyridin-3-yl)-3′H,5″H-dispiro[cyclohexane-1,2′-indene-1′,4″-oxazol]-2″-amine [Compound 30] | 169 nM | – | – | 344 nM | 11.3 nM
10 | (1′R,4′S)-4′-methoxy-6″-(pyridin-3-yl)-3″H,5′″H-trispiro[cyclopropane-1,3′-cyclohexane-1′,2″-indene-1″,4′″-oxazol]-5′″,5′″-d2-2′″-amine and (1′S,4′R)-4′-methoxy-6″-(pyridin-3-yl)-3″H,5′″H-trispiro[cyclopropane-1,3′-cyclohexane-1′,2″-indene-1″,4′″-oxazol]-5′″,5′″-d2-2′″-amine [Compound 87] | 262 nM | – | – | 3480 nM | 4.7 nM
11 | (1′R,4′S)-4′-methoxy-6″-(pyrimidin-5-yl)-3″H,5′″H-trispiro[cyclopropane-1,3′-cyclohexane-1′,2″-indene-1″,4′″-oxazol]-5′″,5′″-d2-2′″-amine and (1′S,4′R)-4′-methoxy-6″-(pyrimidin-5-yl)-3″H,5′″H-trispiro[cyclopropane-1,3′-cyclohexane-1′,2″-indene-1″,4′″-oxazol]-5′″,5′″-d2-2′″-amine [Compound 86] | 144 nM | – | – | 4750 nM | 5.9 nM
